In patent publication US11390617B2, “Methods of treating non-Hodgkin lymphoma using 2-(2,6-dioxopiperidin-3-yl)-4-((2-fluoro-4-((3-morpholinoazetidin-1-yl)methyl)benzyl)amino)isoindoline-1,3-dione” (Celgene Corporation, priority 2019, dated 2022):
Blank lines part the entries; values can stand above or below the molecule they belong to.

Legend:
SU-DHL-4 cell line = experiment: Cell proliferation and viability assay using SU-DHL-4 cell line (Cell Titer-Glo); assay type: cell-based; details: Homo sapiens, SU-DHL-4, 120 hours
Procedure: The following exemplary assay uses a DLBCL cell line, for example, the SU-DHL-4 cell line (Deutsche Sammlung von Mikroorganismen und Zellkulturen GmbH [DSMZ]: catalogue number ACC-495) at 120 hours post-treatment. The seeding density for SU-DHL-4 can be optimized to ensure assay linearity in 1536-well plates.
Increasing concentrations (0.5 nM to […]) of Compounds 1, 2, and 3 were each spotted in a 20-point dilution fashion (unevenly spaced data points) via an acoustic dispenser (EDC ATS-100) into an empty 1536-well plate. The DMSO concentration was kept constant for a final assay concentration of 0.1% DMSO. Prior to testing, SU-DHL-4 cells were grown in RPMI-1640 (Roswell Park Memorial Institute-1640) medium with 10% FBS (fetal bovine serum: HyClone) and expanded in culture flasks to provide sufficient amounts of starting material. Cells were then diluted to 500 cells per well in a 5 μL volume, and added directly to the compound-spotted 1536-well plates. Cells were allowed to grow for 120 hours in 5% CO2 at 37° C. At the time when exposure of cells to compound began (t0), initial viable cell number was assessed via Cell Titer-Glo® Luminescent Cell Viability Assay at a 1 vol: 2 vol ratio according to manufacturer's instructions (Promega Corporation, Madison, Wis.) by quantifying the level of luminescence generated by adenosine-5′-triphosphate (ATP) present in viable cells. After 120 hours, cell viability of the treated cells was assessed via Cell Titer-Glo© and read for luminescence. All growth inhibition curves were processed and evaluated using Activity Base (IDBS, Alameda, Calif.). Cell viability IC50 values were calculated using a four parameter logistic model (sigmoidal dose-response model): y=(A+((B−A)/(1+((C/x)^D)))) wherein: A=YMin B=YMax C=EC50 D=Hill slope IC50=the concentration of the compound when Y=50% of DMSO control Y=cell viability measured as luminescence unit, and x=concentration of compound.

[1] = tested on: OCI-LY10-Luc CNS DLBCL xenograft; experiment: OCI-LY10-Luc CNS lymphoma xenograft model (intracranial); assay type: in vivo, Nude (nu/nu) mice; details: 30 mg/kg QD oral, 3 weeks
Procedure: Antitumor activity of Compound 1 was evaluated as a single agent in OCI-LY10-luc diffuse large B-cell lymphoma (DLBCL) xenografted intracranially into nude mice as a model for central nervous system (CNS) lymphoma.
CNS lymphoma study was conducted with OCI-LY-10 cells transfected with luciferase (OCI-LY-10-Luc). Nude (nu/nu) mice were inoculated intracranially into the right cerebral hemisphere of the brain with OCI-LY10-Luc cells. Following inoculation of animals, the tumors were allowed to grow for 5 days. On day 5 following tumor cell inoculation, the mice were imaged using IVIS100 imaging system. The mice having tumors with an average flux ranging between 1×10^7 and 2×10^7 photons/sec were pooled together and randomized into various treatment groups. Compound 1 was formulated in 0.5% Methyl Cellulose, 0.25% Tween 80 and 50 mM Citrate pH 3 (MCT) in water. The animals were orally administered vehicle (MCT) or Compound 1 once daily (QD) for 3 weeks. Doses of Compound 1 ranged between 3 and 30 mg/kg. The positive control pomalidomide (30 mg/kg, QD) formulated in aqueous 0.5% CMC and 0.25% Tween-80 was administered PO. The animals were imaged for bioluminescence once a week using IVIS100 imaging system and monitored for survival. Statistical analysis was performed using a log-rank test between Compound 1-treated and vehicle-treated control groups.

[2] = tested on: WSU-DLCL2 DLBCL xenograft tumors; experiment: WSU-DLCL2 (DLBCL) xenograft model; assay type: in vivo, female SCID mice; details: rituximab 10 mg/kg intraperitoneally BIW, single agent
Procedure: (§1) Female 6- to 8-weeks-old CB17 SCID mice were obtained from Charles River Laboratories. Mice were housed in a barrier facility in micro-isolator cages at 10 animals per cage. Mice were fed with Harlan-Teklad LM-485 Mouse/Rat Sterilizable Diet and autoclaved water ad libitum and maintained on a 12 hours light-dark cycle. Animals were acclimatized to the animal housing facility for a period of 7 days before the beginning of the experiment. All animal studies were performed under protocols approved by Institutional Animal Care and Use Committees.
Suspensions of Compound 1 were pared in aqueous 0.5% Methyl Cellulose, 0.25% Tween 80 and 50 mM Citrate pH 3. The formulations were homogenized using a Teflon pestle and mortar (Potter-Elvehjem tissue grinder). For multiday studies, the compound was freshly formulated every day. Compound 1 and vehicle were administered by oral gavage. Rituximab was diluted in 0.9% saline and administered intraperitoneally.
Tumor cells were injected subcutaneously in the flank region above the right hind legs of female CB17 SCID mice. When the tumor volumes reach to approximately 200 mm^3, mice bearing tumors of 150-300 mm^3 were randomly assigned to receive oral doses of vehicle, Compound 1, rituximab or combination of Compound 1 (5 days on and 2 days off for 3 weeks) and rituximab (twice a week) for the duration of the study. Tumor volumes were determined before the initiation of treatment and were considered as the starting volumes. Tumors were measured twice a week for the duration of the study. The long and short axes of each tumor were measured using a digital caliper in millimeters. The tumor volumes were calculated using the formula: width^2×length/2. The tumor volumes were expressed in cubic millimeters (mm^3).
Xenograft data are expressed as mean±SEM. Statistical analyses were performed using GraphPad Prism. […]
Xenograft study was conducted with female SCID mice bearing WSU-DLCL2 DLBCL xenograft tumors. […] Tumors were measured twice a week using calipers and tumor volumes were calculated using the formula of W^2×L/2. […]

[3] = tested on: SUDHL-6 DLBCL xenograft tumors; experiment: SUDHL-6 (DLBCL) xenograft model; assay type: in vivo, female SCID mice; details: rituximab 10 mg/kg intraperitoneally BIW, single agent
Procedure: as §1
(§2) Suspensions of Compound 1 were pared in aqueous 0.5% Methyl Cellulose, 0.25% Tween 80 and 50 mM Citrate pH 3. […]
(§3) Tumor cells were injected subcutaneously in the flank region above the right hind legs of female CB17 SCID mice. […] Tumor volumes were determined before the initiation of treatment and were considered as the starting volumes. Tumors were measured twice a week for the duration of the study. The long and short axes of each tumor were measured using a digital caliper in millimeters. The tumor volumes were calculated using the formula: width^2×length/2. […]
(§4) Xenograft data are expressed as mean±SEM. […]
Xenograft study was conducted with female SCID mice bearing SUDHL-6 DLBCL xenograft tumors. […] Tumors were measured twice a week using calipers and tumor volumes were calculated using the formula of W^2×L/2. […]

[4] = tested on: RL follicular lymphoma xenograft tumors; experiment: RL (follicular lymphoma) xenograft model, alone and in combination with rituximab; assay type: in vivo, female SCID mice; details: rituximab 25 mg/kg intraperitoneally BIW, single agent
Procedure: as §1, §2, §3, §4
Xenograft study was conducted with female SCID mice bearing RL follicular lymphoma xenograft tumors. […] Tumors were measured twice a week using calipers and tumor volumes were calculated using the formula of W^2×L/2. […]

IC50 (SU-DHL-4 cell line): < 200 nM
Molecule: O=C1CC[C@@H](N2C(=O)c3cccc(NCc4ccc(CN5CC(N6CCOCC6)C5)cc4F)c3C2=O)C(=O)N1 [Compound 2, (R)-2-(2,6-dioxopiperidin-3-yl)-4-((2-fluoro-4-((3-morpholinoazetidin-1-yl)methyl)benzyl)amino)isoindoline-1,3-dione]

IC50 (SU-DHL-4 cell line): < 200 nM
Molecule: O=C1CCC(N2C(=O)c3cccc(NCc4ccc(CN5CC(N6CCOCC6)C5)cc4F)c3C2=O)C(=O)N1 (stereo not shown) [Compound 3, 2-(2,6-dioxopiperidin-3-yl)-4-((2-fluoro-4-((3-morpholinoazetidin-1-yl)methyl)benzyl)amino)isoindoline-1,3-dione]

Molecule: Nc1cccc2c1C(=O)N(C1CCC(=O)NC1=O)C2=O (stereo not shown) [Pomalidomide, reference compound]
% BLI Inhibition on Day 26 ([1]; relative to vehicle control): 68.8% | Median Survival ([1]; vehicle 35 days): 50 days

Molecule: Rituximab [reference compound]
tumor volume reduction [2]: 66% | tumor volume reduction [3]: 54% | tumor volume reduction [4]: 56%
